Legend:
[1] = test system: iPSC-derived mDA neurons; assay: mDA neuron marker expression (NURR1, TH) as sign of acute toxicity; assay type: cell-based, human; details: treatment of mDA neurons
Description: Cells were fixed in 4% paraformaldehyde for 15 minutes. Blocking was performed in phosphate-buffered saline supplemented with 1% BSA, and 0.3% Triton X-100 for 30 minutes to 1 hour. Cells were stained overnight at 4° C. with primary antibodies diluted in blocking buffer. Following several washes, cells were stained with appropriate Alexa Fluor-labeled secondary antibodies (Molecular Probes, Carlsbad, Calif.) at 1:500 in blocking buffer for 30 minutes to 3 hours at room temperature. Cells were counterstained with 4′,6-diamidino-2-phenylindole (DAPI; Thermo Fisher, Rockford, Ill.) to visualize nuclei. Images were acquired with an Olympus IX81 microscope using a Hamamatsu ORCA CCD camera.
Cells were collected with a cell lifter (Corning, Tewksbury, Mass.) in ice-cold phosphate-buffered saline without calcium or magnesium (PBS−/−). Cell pellets were rapidly frozen on ethanol and dry ice and stored at −80° C. Cell pellets were thawed on ice and resuspended in 50-200 μl RIPA lysis buffer (50 mM Tris-HCl pH 8.0, 120 mM NaCl, 6 mM EDTA, 0.5% NP-40) with 1% sodium dodecyl sulfate (SDS). Cell suspensions were vortexed at 15-minute intervals during a 45-minute incubation on ice. Lysates were isolated following a 10,000 rpm spin for 10 minutes at 4° C. 20-40 μg samples were further diluted with 4× Laemmli sample buffer, boiled for 5 minutes at 95° C., and loaded onto a NuPAGE 4-12% Bis-Tris precast gel (Life Technologies). Gel electrophoresis was performed at 100 V for 2 hours. Gels were transferred to a methanol activated PVDF membrane using the XCell II Blot Module (Life Technologies) according to the manufacturer's instructions. Blots were blocked in 3% bovine serum albumin (BSA) in Tris buffered saline plus 0.1% Tween-20 (TBS-T) for 45 minutes at room temperature. […]
Following several washes with TBS-T, blots were incubated in appropriate HRP-labeled secondary antibodies (Jackson ImmunoResearch, West Grove, Pa.) for 1 hour at room temperature. […] Densitometry quantification was performed using ImageJ on blots from three independent experiments.

[2] = test system: proliferating cells in iPSC-derived mDA neuron cultures; assay: Mitomycin C treatment of iPSC-derived mDA neuron cultures; assay type: cell-based, human; details: 1 day following the final day 30 replating
Description: One to two days after plating, cells were treated with 1 μg/ml mitomycin C (Tocris) for 1 hour to kill any remaining proliferating contaminants. iPSC-derived mDA neurons were fed every 2 to 3 days and maintained without passaging until the desired timepoint for a given experiment. PO, laminin and fibronectin were added to the medium every 7-10 days to prevent neurons from lifting off.

[3] = test system: doxycycline (dox)-inducible fibroblast line; assay: Reversibility of progerin-induced nuclear changes in doxycycline-inducible fibroblast line; assay type: cell-based; details: following re-addition of doxycycline
[4] = test system: motor neurons (MNs); details: after trophic factor withdrawal (Yang et al.); cited from earlier work

N#CC(C#N)=NNc1cccc(Cl)c1 [CCCP, carbonyl cyanide 3-chlorophenylhydrazone, reference compound]
mDA neuron marker expression after mitochondrial toxin [1]: rapidly induces mDA neuron marker loss

CO[C@@]12[C@H](COC(N)=O)C3=C(C(=O)C(C)=C(N)C3=O)N1C[C@@H]1N[C@@H]12 [Mitomycin C, mitomycin C]
post-mitotic neurons [2]: unaffected | remaining proliferating cells [2]: helped to eliminate the remaining proliferating cells

C[C@H]1c2cccc(O)c2C(=O)C2=C(O)[C@]3(O)C(=O)C(C(N)=O)=C(O)[C@@H](N(C)C)[C@@H]3[C@@H](O)[C@@H]21 [doxycycline]
time to reversal of progerin-induced changes in nuclear morphology [3]: ≤ 10 days

O=C1Cc2c([nH]c3ccc(Br)cc23)-c2ccccc2N1 [kenpaullone]
survival of MNs [4]: impressive ability to prolong the healthy survival of MNs

Reference: US9963674B2, “Age-modified cells and methods for making age-modified cells” (Memorial Sloan-Kettering Cancer Center, priority 2013, dated 2018)
